Paper PMC9679038, “Hemoglobin is an oxygen-dependent glutathione buffer adapting the intracellular reduced glutathione levels to oxygen availability” (Redox Biology, 2022)

Target: T1, Hemoglobin (Hb; oxy-Hb, also deoxy-Hb) (Homo sapiens, UniProt P68871+P69905)
T1 construct: gene HBB
T1 sequence (P68871 2-147): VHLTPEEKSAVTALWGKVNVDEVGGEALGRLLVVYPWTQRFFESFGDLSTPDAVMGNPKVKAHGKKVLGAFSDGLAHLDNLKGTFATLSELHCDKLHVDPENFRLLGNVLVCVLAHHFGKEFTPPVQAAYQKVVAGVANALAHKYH
T1 sequence (P69905 2-142): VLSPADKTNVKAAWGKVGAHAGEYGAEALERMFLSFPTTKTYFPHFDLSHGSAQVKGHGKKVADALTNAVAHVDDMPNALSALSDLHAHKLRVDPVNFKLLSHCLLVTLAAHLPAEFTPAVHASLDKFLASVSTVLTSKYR

Kd: 2000 nM
Structure (SMILES): N[C@@H](CCC(=O)N[C@@H](CS)C(=O)NCC(=O)O)C(=O)O [GSH, reduced glutathione]
